Results published in US20230278995A1, “1,3,4-OXADIAZOLE DERIVATIVE COMPOUNDS AS HISTONE DEACETYLASE 6 INHIBITOR, AND THE PHARMACEUTICAL COMPOSITION COMPRISING THE SAME” (CHONG KUN DANG PHARMACEUTICAL CORP., priority 2020, published 2023).

Columns and labels:
human recombinant HDAC1 = target: T1, human recombinant HDAC1 (Homo sapiens, UniProt Q13547); assay: HDAC enzyme activity inhibition assay (HDAC Fluorimetric Drug Discovery Kit), HDAC1; type: biochemical; conditions: human recombinant HDAC1, Fluor de Lys-SIRT1 substrate, 30° C. 60 minutes
T1 construct: purchased Enzo Life Sciences, Inc. BML-SE456
In short: (§1)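 Recombinant human HDAC1 or HDAC6 (0.3 μg) reacted with 10 μM Fluor de Lys-SIRT1 substrate at 30 °C for 60 min. Developer added for 30 min, then fluorescence read at Ex 360/Em 460.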

human recombinant HDAC6 = target: T2, human recombinant HDAC6 (Homo sapiens, UniProt Q9UBN7); assay: HDAC enzyme activity inhibition assay (HDAC Fluorimetric Drug Discovery Kit), HDAC6; type: biochemical; conditions: for HDAC6 selectivity (fold): HDAC1 vs HDAC6; for IC50: human recombinant HDAC6, same protocol as HDAC1
T2 construct: purchased Calbiochem Inc. 382180
T2 sequence (Q9UBN7 1-1215): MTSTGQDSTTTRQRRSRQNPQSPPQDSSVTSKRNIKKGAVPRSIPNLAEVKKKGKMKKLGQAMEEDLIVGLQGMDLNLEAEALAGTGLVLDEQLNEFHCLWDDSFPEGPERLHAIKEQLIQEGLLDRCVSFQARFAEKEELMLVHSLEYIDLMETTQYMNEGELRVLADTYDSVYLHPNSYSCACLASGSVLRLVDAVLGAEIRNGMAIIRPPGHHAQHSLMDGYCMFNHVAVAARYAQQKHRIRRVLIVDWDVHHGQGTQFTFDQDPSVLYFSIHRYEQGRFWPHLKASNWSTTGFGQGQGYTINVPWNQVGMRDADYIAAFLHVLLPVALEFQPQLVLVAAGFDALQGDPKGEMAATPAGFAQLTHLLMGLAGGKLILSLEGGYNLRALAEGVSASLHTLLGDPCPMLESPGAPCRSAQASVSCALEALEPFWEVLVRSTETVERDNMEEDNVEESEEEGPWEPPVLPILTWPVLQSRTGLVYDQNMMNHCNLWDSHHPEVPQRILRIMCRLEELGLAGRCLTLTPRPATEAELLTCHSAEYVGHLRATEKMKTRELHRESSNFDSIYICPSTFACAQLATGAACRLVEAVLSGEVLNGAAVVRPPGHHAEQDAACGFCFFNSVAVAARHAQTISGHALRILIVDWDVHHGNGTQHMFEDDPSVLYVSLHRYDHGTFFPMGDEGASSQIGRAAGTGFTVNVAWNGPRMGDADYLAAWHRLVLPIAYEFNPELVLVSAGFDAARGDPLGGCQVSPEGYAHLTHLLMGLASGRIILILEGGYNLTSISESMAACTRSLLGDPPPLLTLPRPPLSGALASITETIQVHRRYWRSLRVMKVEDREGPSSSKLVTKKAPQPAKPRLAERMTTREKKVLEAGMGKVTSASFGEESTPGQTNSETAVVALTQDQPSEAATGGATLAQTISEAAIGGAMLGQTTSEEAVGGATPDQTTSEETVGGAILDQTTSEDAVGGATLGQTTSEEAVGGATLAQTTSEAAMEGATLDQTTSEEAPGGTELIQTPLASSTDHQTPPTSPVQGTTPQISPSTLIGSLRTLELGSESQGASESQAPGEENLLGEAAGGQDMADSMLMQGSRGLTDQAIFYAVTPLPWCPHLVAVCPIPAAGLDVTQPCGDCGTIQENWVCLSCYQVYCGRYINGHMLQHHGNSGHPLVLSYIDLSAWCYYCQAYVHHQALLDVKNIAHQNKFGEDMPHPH
In short: as §1

T1 sequence (Q13547 whole entry): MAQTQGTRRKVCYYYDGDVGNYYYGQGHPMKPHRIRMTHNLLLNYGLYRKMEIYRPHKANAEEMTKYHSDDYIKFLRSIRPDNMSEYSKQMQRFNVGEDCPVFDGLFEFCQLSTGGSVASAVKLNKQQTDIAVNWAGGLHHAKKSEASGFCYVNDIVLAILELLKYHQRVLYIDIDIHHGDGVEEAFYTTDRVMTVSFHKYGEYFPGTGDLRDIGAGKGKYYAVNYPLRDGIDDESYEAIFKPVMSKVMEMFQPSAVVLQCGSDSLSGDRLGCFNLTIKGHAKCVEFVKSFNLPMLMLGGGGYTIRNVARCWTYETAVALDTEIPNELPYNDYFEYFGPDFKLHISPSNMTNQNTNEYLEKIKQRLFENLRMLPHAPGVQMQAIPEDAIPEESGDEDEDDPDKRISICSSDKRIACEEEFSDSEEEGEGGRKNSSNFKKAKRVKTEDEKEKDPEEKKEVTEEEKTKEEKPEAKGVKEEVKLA

Row | SMILES | IC50 (human recombinant HDAC1) [nM] | HDAC6 selectivity (fold) (human recombinant HDAC6) | IC50 (human recombinant HDAC6) [nM]
1 | O=C(N(Cc1ccc(-c2nnc(C(F)F)o2)cn1)c1cccc(F)c1)C1(F)CN(C2CN(C3CCOC3)C2)C1 (stereo not drawn) [Compound 3397, N-((5-(5-(difluoromethyl)-1,3,4-oxadiazol-2-yl)pyridin-2-yl)methyl)-3-fluoro-N-(3-fluorophenyl)-1′-(tetrahydrofuran-3-yl)-[1,3′-biazetidine]-3-carboxamide] | 23700 | 1,022 fold | 23.2
2 | O=C(N(Cc1ccc(-c2nnc(C(F)F)o2)cn1)c1cccc(F)c1)C1(F)CN(C2CN(C3CCCCC3)C2)C1 [Compound 3398, 1′-cyclohexyl-N-((5-(5-(difluoromethyl)-1,3,4-oxadiazol-2-yl)pyridin-2-yl)methyl)-3-fluoro-N-(3-fluorophenyl)-[1,3′-biazetidine]-3-carboxamide] | 27500 | 1,374 fold | 20
3 | O=C(N(Cc1ccc(-c2nnc(C(F)F)o2)cn1)c1cccc(F)c1)C1(F)CN(C2CN(C3CCOCC3)C2)C1 [Compound 3399, N-((5-(5-(difluoromethyl)-1,3,4-oxadiazol-2-yl)pyridin-2-yl)methyl)-3-fluoro-N-(3-fluorophenyl)-1′-(tetrahydro-2H-pyran-4-yl)-[1,3′-biazetidine]-3-carboxamide] | 31500 | 1,569 fold | 20.1
4 | CCN1CCC(N2CC(F)(C(=O)N(Cc3ccc(-c4nnc(C(F)F)o4)cn3)c3cccc(F)c3)C2)CC1 [Compound 3400, N-((5-(5-(difluoromethyl)-1,3,4-oxadiazol-2-yl)pyridin-2-yl)methyl)-1-(1-ethylpiperidin-4-yl)-3-fluoro-N-(3-fluorophenyl)azetidine-3-carboxamide] | 36600 | 1,695 fold | 21.6
5 | CCCN1CCC(N2CC(F)(C(=O)N(Cc3ccc(-c4nnc(C(F)F)o4)cn3)c3cccc(F)c3)C2)CC1 [Compound 3401, N-((5-(5-(difluoromethyl)-1,3,4-oxadiazol-2-yl)pyridin-2-yl)methyl)-3-fluoro-N-(3-fluorophenyl)-1-(1-propylpiperidin-4-yl)azetidine-3-carboxamide] | 44500 | 1,951 fold | 22.8
6 | CCCCN1CCC(N2CC(F)(C(=O)N(Cc3ccc(-c4nnc(C(F)F)o4)cn3)c3cccc(F)c3)C2)CC1 [Compound 3402, 1-(1-butylpiperidin-4-yl)-N-((5-(5-(difluoromethyl)-1,3,4-oxadiazol-2-yl)pyridin-2-yl)methyl)-3-fluoro-N-(3-fluorophenyl)azetidine-3-carboxamide] | > 50000 | 2,403 fold | 20.8
7 | CC(C)CN1CCC(N2CC(F)(C(=O)N(Cc3ccc(-c4nnc(C(F)F)o4)cn3)c3cccc(F)c3)C2)CC1 [Compound 3403, N-((5-(5-(difluoromethyl)-1,3,4-oxadiazol-2-yl)pyridin-2-yl)methyl)-3-fluoro-N-(3-fluorophenyl)-1-(1-isobutylpiperidine-4-yl)azetidine-3-carboxamide] | 26300 | 911 fold | 28.8
8 | CC(C)N1CCC(N2CC(F)(C(=O)N(Cc3ccc(-c4nnc(C(F)F)o4)cn3)c3cccc(F)c3)C2)CC1 [Compound 3404, N-((5-(5-(difluoromethyl)-1,3,4-oxadiazol-2-yl)pyridin-2-yl)methyl)-3-fluoro-N-(3-fluorophenyl)-1-(1-isopropylpiperidin-4-yl)azetidine-3-carboxamide] | 25400 | 773 fold | 32.9
9 | O=C(N(Cc1ccc(-c2nnc(C(F)F)o2)cn1)c1cccc(F)c1)C1(F)CN(C2CCN(C3CCC3)CC2)C1 [Compound 3405, 1-(1-cyclobutylpiperidin-4-yl)-N-((5-(5-(difluoromethyl)-1,3,4-oxadiazol-2-yl)pyridin-2-yl)methyl)-3-fluoro-N-(3-fluorophenyl)azetidine-3-carboxamide] | 20400 | 771 fold | 26.5
10 | O=C(N(Cc1ccc(-c2nnc(C(F)F)o2)cn1)c1cccc(F)c1)C1(F)CN(C2CCN(C3COC3)CC2)C1 [Compound 3406, N-((5-(5-(difluoromethyl)-1,3,4-oxadiazol-2-yl)pyridin-2-yl)methyl)-3-fluoro-N-(3-fluorophenyl)-1-(1-(oxetan-3-yl)piperidin-4-yl)azetidine-3-carboxamide] | 26600 | 734 fold | 36.2
11 | O=C(N(Cc1ccc(-c2nnc(C(F)F)o2)cn1)c1cccc(F)c1)C1(F)CN(C2CCN(C3CCCC3)CC2)C1 [Compound 3407, 1-(1-cyclopentylpiperidin-4-yl)-N-((5-(5-(difluoromethyl)-1,3,4-oxadiazol-2-yl)pyridin-2-yl)methyl)-3-fluoro-N-(3-fluorophenyl)azetidine-3-carboxamide] | 48000 | 2,581 fold | 18.6
12 | O=C(N(Cc1ccc(-c2nnc(C(F)F)o2)cn1)c1cccc(F)c1)C1(F)CN(C2CCN(C3CCOC3)CC2)C1 (stereo not drawn) [Compound 3408, N-((5-(5-(difluoromethyl)-1,3,4-oxadiazol-2-yl)pyridin-2-yl)methyl)-3-fluoro-N-(3-fluorophenyl)-1-(1-(tetrahydrofuran-3-yl)piperidin-4-yl)azetidine-3-carboxamide] | 37000 | 1,135 fold | 32.6
13 | O=C(N(Cc1ccc(-c2nnc(C(F)F)o2)cn1)c1cccc(F)c1)C1(F)CN(C2CCN(C3CCCCC3)CC2)C1 [Compound 3409, 1-(1-cyclohexylpiperidin-4-yl)-N-((5-(5-(difluoromethyl)-1,3,4-oxadiazol-2-yl)pyridin-2-yl)methyl)-3-fluoro-N-(3-fluorophenyl)azetidine-3-carboxamide] | > 50000 | 1,497 fold | 33.4
14 | O=C(N(Cc1ccc(-c2nnc(C(F)F)o2)cn1)c1cccc(F)c1)C1(F)CN(C2CCN(C3CCOCC3)CC2)C1 [Compound 3410, N-((5-(5-(difluoromethyl)-1,3,4-oxadiazol-2-yl)pyridin-2-yl)methyl)-3-fluoro-N-(3-fluorophenyl)-1-(1-(tetrahydro-2H-pyran-4-yl)piperidin-4-yl)azetidine-3-carboxamide] | 34700 | 1,343 fold | 25.8
15 | CN1CC(F)(C(=O)N(Cc2ccc(-c3nnc(C(F)F)o3)cc2F)c2ccccc2)C1 [Compound 3429, N-(4-(5-(difluoromethyl)-1,3,4-oxadiazol-2-yl)-2-fluorobenzyl)-3-fluoro-1-methyl-N-phenylazetidine-3-carboxamide] | 30900 | 421 fold | 73.4
16 | CCN1CC(F)(C(=O)N(Cc2ccc(-c3nnc(C(F)F)o3)cc2F)c2ccccc2)C1 [Compound 3430, N-(4-(5-(difluoromethyl)-1,3,4-oxadiazol-2-yl)-2-fluorobenzyl)-1-ethyl-3-fluoro-N-phenylazetidine-3-carboxamide] | > 50000 | 624 fold | 80.1
17 | CC(C)N1CC(F)(C(=O)N(Cc2ccc(-c3nnc(C(F)F)o3)cc2F)c2ccccc2)C1 [Compound 3431, N-(4-(5-(difluoromethyl)-1,3,4-oxadiazol-2-yl)-2-fluorobenzyl)-3-fluoro-1-isopropyl-N-phenylazetidine-3-carboxamide] | > 50000 | 544 fold | 91.8
18 | CC(=O)N1CC(F)(C(=O)N(Cc2ccc(-c3nnc(C(F)F)o3)cc2F)c2ccccc2)C1 [Compound 3432, 1-acetyl-N-(4-(5-(difluoromethyl)-1,3,4-oxadiazol-2-yl)-2-fluorobenzyl)-3-fluoro-N-phenylazetidine-3-carboxamide] | 29100 | 366 fold | 79.5
